Test results taken from ChEMBL document CHEMBL5500427, “Discovery of New Phenyltetrazolium Derivatives as Ferroptosis Inhibitors for Treating Ischemic Stroke: An Example Development from Free Radical Scavengers” (J Med Chem, 2024).
Activity calls are given as the source filed them. No cut-off for these calls is given here.

What was measured:
[1] = tested on: HT-1080; assay: Anti-ferroptotic activity against Erastin-induced human HT-1080 cells assessed as inhibition of ferroptosis incubated for 72 hrs by CCK-8 assay; assay type: functional, cell-based; details: Homo sapiens, HT-1080, 72 h; read-out: IC50
[2] = tested on: HT-1080; assay: Anti-ferroptotic activity against Erastin-induced human HT-1080 cells assessed as inhibition of ferroptosis incubated for 24 hrs by Alamar blue dye based assay; assay type: functional, cell-based; details: HT-1080, 24 h
[3] = tested on: N2a; assay: Cytoprotective activity against oxygen-glucose deprivation/reoxygenation induced cell injury in mouse N2a cells assessed as upregulation of SLC7A11 expression at 1 uM incubated for 2 hrs under hypoxia condition and measured after 24 hrs by Western blotting analysis; assay type: functional, cell-based; details: time 26.0 hrs
[4] = Antioxidant activity assessed as DPPH radical scavenging activity at 0.4 uM incubated for 30 mins by Beckman Coulter analysis relative to control; assay type: functional
[5] = tested on: Hippocampus; assay: Anti-ferroptotic activity against glutamate-induced rat Hippocampus assessed as inhibition of ferroptosis; assay type: functional, tissue-based
[6] = tested on: N2a; assay: Cytoprotective activity against oxygen-glucose deprivation/reoxygenation induced cell injury in mouse N2a cells assessed as upregulation of GPX4 expression at 1 uM incubated for 2 hrs under hypoxia condition and measured after 24 hrs by Western blotting analysis; assay type: functional, cell-based; details: time 26.0 hrs
[7] = tested on: HT-1080; assay: Anti-ferroptotic activity against Erastin-induced ferroptosis in human HT-1080 cells assessed as inhibition of lipid peroxidation production at 10 uM incubated for 24 hrs by C11-BODIPY 581/591 based flow cytometry relative to control; assay type: functional; details: HT-1080, 24 h, values are per cent of control
[8] = Apparent permeability of compound at 10 uM incubated for 16 hrs by PAMPA based LC-MS/MS analysis; assay type: ADME
[9] = tested on: Mus musculus; assay: Neuroprotective activity against transient middle cerebral artery occlusion induced ischemia stroke female SPF C57 mouse model assessed as reduction in cerebral infarct volume at 5 mg/kg,iv measured after 24 hrs by TTC staining based analysis relative to control; assay type: functional; design: scale not given: the % may be the effect or the level left
[10] = tested on: HT-1080; assay: Anti-ferroptotic activity against Erastin-induced ferroptosis in human HT-1080 cells assessed as inhibition of lipid ROS production at 10 uM incubated for 24 hrs by C11-BODIPY 581/591 based flow cytometry relative to control; assay type: functional; details: HT-1080, 24 h, values are per cent of control

Compound: CNc1ccc(-c2nnn(C)n2)cc1
- IC50 [1]: 8220 nM

Compound: O=S1(=O)CCN(Cc2cc(NC3CCOCC3)c3[nH]c(-c4ccccc4)cc3c2)CC1
- IC50 [1]: 6000 nM

Compound: COc1cc(-c2nnn(C)n2)ccc1NC1CCCCC1
- IC50 [1]: > 1000 nM

Compound: Cn1nnc(-c2ccc(NC3CCCCC3)cc2N)n1
- IC50 [1]: > 1000 nM

Compound: Cn1nnc(-c2cnc(NC3CCCCC3)s2)n1
- IC50 [1]: > 1000 nM

Compound: COc1ccc(Nc2ccc(-c3nnn(C)n3)cc2NC2CCCCC2)cc1
- IC50 [1]: 81 nM

Compound: CCOC(=O)c1ccc(NC2CCCCC2)c(NCc2ccccc2)c1
- IC50 [2]: 6 nM

Compound: COc1ccc(Nc2ccc(-c3nnn(C)n3)cc2NC2CCCCC2)cn1
- IC50 [1]: 75 nM

Compound: Cn1nnc(-c2ccc(NC3CCCCC3)c(N)c2)n1
- IC50 [1]: 30 nM

Compound: CCCCCCCCNc1ccc(-c2nnn(C)n2)cc1N
- IC50 [1]: 497 nM

Compound: Cn1nnc(-c2ccc(NC3CCCCC3)cc2C(F)(F)F)n1
- IC50 [1]: > 1000 nM

Compound: Cc1cc(NC2CCCCC2)c(N)cc1-c1nnn(C)n1
- IC50 [1]: 71 nM

Compound: Cn1nnc(-c2ccc(NC3CCCCC3)cc2Cl)n1
- IC50 [1]: > 1000 nM

Compound: Cn1nnc(-c2ccc(NC3CCCCC3)cn2)n1
- IC50 [1]: > 1000 nM

Compound: Cn1nnc(-c2ccc(NC3CCCCC3)c(NCc3ccccc3)c2)n1
- IC50 [1]: > 1000 nM

Compound: c1cc(-c2nn[nH]n2)ccc1NC1CCCCC1
- IC50 [1]: > 10000 nM

Compound: Cn1nnc(-c2cc(N)c(NC3CCCCC3)cc2Cl)n1
- IC50 [1]: 17 nM

Compound: O=C1C[C@@H](c2ccc(O)c(O)c2)Oc2cc(O[C@@H]3O[C@H](CO)[C@@H](O)[C@H](O)[C@H]3O)cc(O)c21
- IC50 [1]: 10000 nM

Compound: CCOC(=O)c1ccc(NC2CCCCC2)c(N)c1
- Activity [3]: Active
- inhibition [4]: inactive
- IC50 [5]: 90 nM
- Activity [6]: Active
- response, % of control at 10 µM [7]: 0.58%
- Papp at 16 h, 10 µM [8]: 6.76 ×10⁻⁶ cm/s
- Activity [9]: 9.98%
- IC50 [1]: 60 nM
- response, % of control at 10 µM [10]: 2.29%
